Assay results taken from PubChem BioAssay (NCI).
“And” between values parts separate entries of the source, which are not always exact repeats. Equal values may be shown once.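 Briefly, cells in 96-well plates were exposed to five compound concentrations for 48 h, and endpoints were estimated by linear interpolation. GI50: concentration for 50% inhibition of growth. TGI marks complete inhibition of growth.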

Tests used:
Test in all cases: NCI-60 cell line screen, 48 h
A549 NSCLC = tested on: A549 NSCLC
ACHN renal = tested on: ACHN renal
CCRF-CEM leukemia = tested on: CCRF-CEM leukemia
HCC-2998 colon = tested on: HCC-2998 colon
KM20L2 colon = tested on: KM20L2 colon
M14 melanoma = tested on: M14 melanoma
NCI-H522 lung = tested on: NCI-H522 lung
SK-MEL-2 melanoma = tested on: SK-MEL-2 melanoma
SNB-78 CNS = tested on: SNB-78 CNS
A498 renal = tested on: A498 renal
T-47D breast = tested on: T-47D breast

Compound | TGI (A549 NSCLC) | TGI (ACHN renal) | TGI (CCRF-CEM leukemia) | TGI (HCC-2998 colon) | TGI (KM20L2 colon) | TGI (M14 melanoma) | TGI (NCI-H522 lung) | TGI (SK-MEL-2 melanoma) | TGI (SNB-78 CNS) | TGI (A498 renal) | TGI (T-47D breast) | GI50 (A498 renal) | GI50 (ACHN renal) | GI50 (CCRF-CEM leukemia) | GI50 (HCC-2998 colon) | GI50 (NCI-H522 lung) | GI50 (SK-MEL-2 melanoma) | GI50 (A549 NSCLC) | GI50 (M14 melanoma) | GI50 (T-47D breast)
C=C1C(=O)C23C(O)CC4C5(C)CCCC4(C(O)OC5)C2C(OC(C)=O)CC1C3O (centres undefined) | 51.5 µM | 25.3 µM | 10.7 µM | 32.4 µM | 21.2 µM | 15.1 µM | 3.64 µM | 30.3 µM | 33.9 µM |  |  |  |  |  |  |  |  |  |  | 
c1ccc2c(c1)CCCC/C2=N/OCC1CO1 (centres undefined) | > 100 µM | > 100 µM | > 100 µM | > 100 µM | > 100 µM |  |  | > 100 µM | > 100 µM | > 100 µM |  |  |  |  |  |  |  |  |  | 
O=[N+]([O-])c1cc(Cl)ccc1Sc1ccccc1 | > 100 µM | > 100 µM | > 100 µM | > 100 µM |  | > 100 µM | > 100 µM | > 100 µM |  | > 100 µM | > 100 µM |  |  |  |  |  |  |  |  | 
COc1ccc2c(c1)c(=O)c1c(NCCNCCO)ccc3c(=O)n(CCN(C)C)c(=O)n2c31 | 3.17 µM | 1.49 µM | > 100 µM | 0.234 µM |  | 1.86 µM | 0.0868 µM | 0.634 µM |  | 0.534 µM | 0.541 µM |  |  |  |  |  |  |  |  | 
CCOC(=O)NC(Nc1c(F)c(F)c(F)c(F)c1F)(C(F)(F)F)C(F)(F)F | > 100 µM | > 100 µM | > 100 µM | > 100 µM |  | > 100 µM | > 100 µM | > 100 µM |  | > 100 µM | > 100 µM |  |  |  |  |  |  |  |  | 
C[C@H]1[C@H](C)CC[C@]2(C(=O)OC3OC(CO)C(O)C(O)C3O)CC[C@]3(C)C(=CC[C@@H]4[C@@]5(C)C[C@H]6OC(=O)c7cc(O)c(O)c(O)c7-c7c(cc(O)c(O)c7O)C(=O)O[C@@H]6C(CO)(CO)[C@@H]5CC[C@]43C)[C@H]12 (some centres undefined) | > 100 µM | > 100 µM | > 92.3 µM | > 100 µM |  | > 100 µM | 38.6 µM | > 100 µM |  | > 100 µM | > 100 µM |  |  |  |  |  |  |  |  | 
C(=C\c1ccccc1)/COc1ccccc1C(N1CCOCC1)n1nc2ccccc2n1 (centres undefined) | > 89.2 µM | 38.8 µM | 6.14 µM | 34.8 µM |  | 13.5 µM | 49.3 µM | 24.2 µM |  | > 100 µM | 43.8 µM |  |  |  |  |  |  |  |  | 
O=C1c2cccc(O)c2C(=O)c2c(O)cc(CO)cc21 | > 100 µM | > 100 µM | > 100 µM | > 100 µM | > 100 µM | > 100 µM | 64.6 µM | > 100 µM | > 100 µM | > 100 µM |  |  |  |  |  |  |  |  |  | 
COc1ccc(OC)c2sc(N3C(=O)/C(=C/c4cccc([N+](=O)[O-])c4)N=C3c3ccccc3)nc12 | > 100 µM | > 100 µM | 78.2 µM | > 100 µM |  | > 100 µM | > 100 µM | > 100 µM |  | > 100 µM | 64.2 µM |  |  |  |  |  |  |  |  | 
O=C(OCC1OC(n2nc(Cn3nnc(-c4cccnc4)n3)n(-c3cccc4ccccc34)c2=S)C(OC(=O)c2ccccc2)C1OC(=O)c1ccccc1)c1ccccc1 (centres undefined) | > 100 µM | > 100 µM | > 100 µM | > 100 µM |  | > 100 µM | > 100 µM | > 100 µM |  | > 100 µM | > 100 µM |  |  |  |  |  |  |  |  | 
CC(C)/C(Cl)=N/OC(=O)Nc1ccc(OC(F)(F)F)cc1 | 34.8 µM | 25.1 µM | 5.08 µM | 30.5 µM |  | 12 µM | 2.81 µM | 28.1 µM |  | 32.9 µM | 25.8 µM |  |  |  |  |  |  |  |  | 
Clc1ccc(/C(=C\c2ccccc2)Cn2ccnc2)cc1 | 49.4 µM | 67.6 µM | > 100 µM | 48.8 µM |  | 39.4 µM | 28 µM | 30.3 µM |  | 42.1 µM | 69.9 µM |  |  |  |  |  |  |  |  | 
O=C(NN1C(=O)CSC1c1cccc(F)c1)c1ccncc1 (centres undefined) | > 100 µM | > 100 µM | > 100 µM | > 100 µM | > 100 µM | > 100 µM | > 100 µM | > 100 µM | > 100 µM | > 100 µM |  |  |  |  |  |  |  |  |  | 
CSc1nc2c(ncn2C2OC(CO)C(O)C(O)C2O)c(=O)[nH]1 (centres undefined) | > 100 µM |  | > 100 µM | > 100 µM | > 100 µM |  | > 100 µM | > 100 µM | > 100 µM | > 100 µM |  |  |  |  |  |  |  |  |  | 
O=C(O)/C=C\C(=O)Nc1ccc(S(=O)(=O)c2ccc(NC(=O)/C=C\C(=O)O)cc2)cc1 | > 100 µM | > 100 µM | > 100 µM |  | > 100 µM | > 100 µM | > 100 µM | > 100 µM | > 100 µM |  |  |  |  |  |  |  |  |  |  | 
CCN(CCCl)c1cc(CN(C)C)cc(NC(=O)c2ccc(C(=O)Nc3cccc(CN(C)C)c3)cc2)c1 | 14.5 µM | 10.7 µM | 0.669 µM | 3.05 µM |  | 17.7 µM | 0.042 µM | 1.61 µM |  | 7.33 µM | 10.1 µM |  |  |  |  |  |  |  |  | 
Cc1cc(O)c(-c2cc(O)c(C)cc2O)cc1O | 49.5 µM | 13.7 µM | 3.8 µM | 27.3 µM |  | 22.9 µM | 12.2 µM | 33 µM |  | 41.8 µM | 5.26 µM |  |  |  |  |  |  |  |  | 
CCN(CC)CCO/N=C1\CC[C@H]2[C@@H]3CCc4cc(OC)ccc4[C@H]3CC[C@]12C | 6.96 µM | 13.2 µM | 4.86 µM | 3.33 µM |  | 1.82 µM | 7.02 µM | 5.07 µM |  | 9.28 µM | 7.13 µM |  |  |  |  |  |  |  |  | 
C=CCN1C(=O)/C(=C/c2ccc(C)cc2)N=C1SC1OC(COC(C)=O)C(OC(C)=O)C(OC(C)=O)C1OC(C)=O (centres undefined) | > 100 µM | > 100 µM |  | > 100 µM |  | > 100 µM | > 100 µM | > 100 µM |  | > 100 µM and 69.5 µM | > 100 µM | > 100 µM and 23.4 µM | > 27.6 µM and 67.3 µM | 12.4 µM and 2.25 µM | > 100 µM and 35.6 µM | 6.85 µM | > 100 µM and 38.3 µM |  |  | 
COc1cc(C(O)c2ccc3c(c2)OCO3)cc(OC)c1OC (centres undefined) | > 100 µM | > 100 µM | > 100 µM | > 100 µM |  | > 100 µM | > 100 µM | > 100 µM |  | > 100 µM | > 100 µM |  |  |  |  |  |  |  |  | 
COc1ccc(-n2nc(C)c3c(Nc4ccc(NC(=O)Nc5ccc(Cl)c(C(F)(F)F)c5)cc4)ncnc32)cc1 | 6.31 µM | 6.86 µM | > 100 µM | 5.64 µM |  | 4.32 µM | 3.65 µM | 4.43 µM |  | 5.67 µM | 5.41 µM | 2.09 µM | 1.64 µM | 2.2 µM | 2.22 µM | 1.71 µM | 2.23 µM | 1.88 µM | 1.68 µM | 1.71 µM
COc1ccc(Oc2cnn(C(Br)(Br)C(C)=O)c(=O)c2Br)cc1 | 60.7 µM | 26.4 µM | 4.57 µM | 30.6 µM |  | 30.6 µM | 14.7 µM | 31.4 µM |  | 59.9 µM | 61 µM |  |  |  |  |  |  |  |  | 
c1ccc([P+](CCCCCCCC[P+](c2ccccc2)(c2ccccc2)c2ccccc2)(c2ccccc2)c2ccccc2)cc1 | > 100 µM | > 100 µM | > 100 µM | > 100 µM |  | > 100 µM | 12.1 µM | 24.7 µM |  | > 86.4 µM | > 100 µM |  |  |  |  |  |  |  |  | 
C[C@]12CC[C@@H]3c4ccc(O)cc4CC[C@H]3[C@@H]1C/C(=C\c1ccc(C#N)cc1)C2=O | > 100 µM | > 100 µM | > 100 µM | > 100 µM |  | > 100 µM | 41.6 µM | > 100 µM |  | > 100 µM | > 100 µM |  |  |  |  |  |  |  |  | 
CCNc1ncnc2sc(SCc3ccccc3)nc12 | > 100 µM | > 100 µM | > 100 µM | > 100 µM |  | > 100 µM | > 100 µM | > 100 µM |  | > 100 µM | > 100 µM |  |  |  |  |  |  |  |  | 
CC(C)C1=C(O)C2=C(C(=O)C1=O)C1(C)CCCC(C)(C)C1C(O)C2OC=O (centres undefined) | 35.8 µM | 13.2 µM | 8.47 µM | 19.2 µM |  | 29.1 µM | 27.5 µM | 28.6 µM |  | 35.1 µM | 27.9 µM |  |  |  |  |  |  |  |  | 
O=C(/C=C/c1ccc2c(c1)OCO2)Cc1nc2ccccc2[nH]c1=O | 62 µM | 74.3 µM | > 100 µM | 86.8 µM |  | > 100 µM | > 100 µM | 50.7 µM |  | 65.7 µM | 34.2 µM |  |  |  |  |  |  |  |  | 
O=C(CC(=O)Nc1ccccc1)NNC(c1cc(N=Nc2ccc(Br)cc2)ccc1O)P(O)O (centres undefined) | > 10 µM | > 10 µM | 8.25 µM | > 10 µM |  | 3.84 µM | > 10 µM | > 10 µM |  | 8.72 µM | > 10 µM |  |  |  |  |  |  |  |  | 
COc1cc2[nH]c(-c3ccccc3)cc(=O)c2c(OC)c1OC | > 100 µM | > 100 µM | > 100 µM | > 100 µM |  | > 100 µM | > 100 µM | > 100 µM |  | > 100 µM | > 100 µM |  |  |  |  |  |  |  |  | 
